# According to US20240166612A1, “ARYLTHIOETHER ACETAMIDE AND RELATED COMPOUNDS AND THEIR USE IN TREATING MEDICAL CONDITIONS” (X-Biotix Therapeutics, Inc., priority 2021, published 2024):
# Assays:
# [1] = target: T1, recombinant LpxD enzyme (P. aeruginosa) (Pseudomonas aeruginosa, UniProt Q9HXY6); test: LpxD in vitro substrate acylation assay with RapidFire MS analysis (P. aeruginosa); type: biochemical; details: P. aeruginosa enzyme 10 nM, EcACP-C10, 120 min
# T1 sequence (Q9HXY6 1-353): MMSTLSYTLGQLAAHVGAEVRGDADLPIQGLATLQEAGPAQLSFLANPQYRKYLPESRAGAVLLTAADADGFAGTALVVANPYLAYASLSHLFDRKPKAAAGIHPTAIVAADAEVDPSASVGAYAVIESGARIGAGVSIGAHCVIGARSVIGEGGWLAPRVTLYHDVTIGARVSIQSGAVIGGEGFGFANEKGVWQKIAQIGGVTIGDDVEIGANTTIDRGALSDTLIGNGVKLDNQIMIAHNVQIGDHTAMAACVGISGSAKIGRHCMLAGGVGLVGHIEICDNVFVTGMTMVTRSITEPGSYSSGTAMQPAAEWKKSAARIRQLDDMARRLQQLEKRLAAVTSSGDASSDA
# Experimental: Exemplary compounds from the above Examples were tested for ability to inhibit LpxD activity using an in vitro substrate acylation assay with RapidFire™ MS analysis. Assay procedures and results are described below.
# Reactions were carried out in a final volume of 30 μL with 25 mM HEPES (pH 7.3), 150 mM NaCl, 2 mM DTT, 0.01% BSA, 5 μM UDP-3-O[R-3-Hydroxymyristoyl]-glucosamine (produced at Charles River according to literature procedures, and partially purified at Evotec), 10 nM recombinant LpxD enzyme (P. aeruginosa or E. coli, produced at Evotec), 1 μM decanoyl E. coli acyl-carrier protein (EcACP-C10, produced at Evotec), and 1% DMSO containing test compound. After 120 min incubation at room temperature, reactions were stopped by addition of 30 μL of 10% TCA in water.
# (§1) Samples were centrifuged (4350 rpm, 4° C., 5 min), and then subjected to RapidFire™ MS analysis on an Agilent RapidFire 300 coupled to an Agilent 6460 triple-quadrupole mass spectrometer. Analytes were retained on a C4 (type A) cartridge using the following solvents and flow rates: • Pump 1—H2O with 5 mM NH4OAc at 2.0 mL/min, • Pump 2—MeOH/H2O (90/10) at 1.5 mL/min, • Pump 3—MeOH/H2O (90/10) at 0.5 mL/min, and • Pump 4—ACN (organic)/H2O (aqueous). Substrate and product of the reaction were detected in negative mode ESI-MS/MS by MRM (multiple reaction monitoring) of transitions 790.3/385.0 (UDP-3-O[R-3-Hydroxymyristoyl]-glucosamine substrate) and 960.4/385.0 (UDP-3-O—[R-3-Hydroxymyristoyl]-N—[R-3-hydroxydecanoyl]-glucosamine product).
# For IC50 determinations, peak areas of the substrate and product were compared to compute the proportion of product formed by the LpxD enzyme at each compound concentration. The fractional activity was converted to percentage inhibition and plotted against compound concentration in Evotec's proprietary platform Aplus and fit using a four-parameter logistic using non-linear regression to yield the IC50 value.
# [2] = target: recombinant LpxA enzyme (E. coli) (Escherichia coli, UniProt P0A722); test: LpxA in vitro substrate acylation assay with RapidFire MS analysis (E. coli); type: biochemical
# Chain of recombinant LpxA enzyme (E. coli) (P0A722 whole entry): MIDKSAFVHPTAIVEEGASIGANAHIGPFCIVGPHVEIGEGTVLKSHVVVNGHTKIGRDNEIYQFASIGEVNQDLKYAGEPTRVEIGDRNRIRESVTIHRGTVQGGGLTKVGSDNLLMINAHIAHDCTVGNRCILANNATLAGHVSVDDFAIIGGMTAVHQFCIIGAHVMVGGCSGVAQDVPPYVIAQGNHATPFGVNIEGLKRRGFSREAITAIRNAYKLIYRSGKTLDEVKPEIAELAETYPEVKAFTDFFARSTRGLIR
# Experimental: Exemplary compounds from the above Examples were tested for ability to inhibit LpxA activity using an in vitro substrate acylation assay with RapidFire™ MS analysis. Assay procedures and results are described below.
# Reactions were carried out in a final volume of 30 μL with 25 mM HEPES (pH 7.3), 150 mM NaCl, 2 mM DTT, 0.01% BSA, 5 μM UDP-GlcNac, recombinant LpxA enzyme (0.5 nM P. aeruginosa or 1.0 nM E. coli, both produced at Evotec), 0.5 μM acyl-transfer reagent (decanoyl P. aeruginosa acyl-carrier protein [PaACP-C10] or myristoyl E. coli acyl-carrier protein [EcACP-C1-4], both produced at Evotec), and 1% DMSO containing test compound. After 30 min incubation at room temperature, reactions were stopped by addition of 30 μL of 10% TCA in water.
# as §1, with “606.0/385.0 (UDP-GlcNAc” for “790.3/385.0 (UDP-3-O[R-3-Hydroxymyristoyl]-glucosamine”, “776.2/385.0 (UDP-3-O—(R-3-hydroxydecanoyl)-GlcNAc product, for P. aeruginosa LpxA assay) or 832.2/385.0 (UDP-3-O—(R-3-hydroxymyristoyl)-GlcNAc product, for E. coli LpxA assay).” for “960.4/385.0 (UDP-3-O—[R-3-Hydroxymyristoyl]-N—[R-3-hydroxydecanoyl]-glucosamine product).”
# For IC50 determinations, peak areas of the substrate and product were compared to compute the proportion of product formed by the LpxA enzyme at each compound concentration.
# [3] = target: T2, recombinant LpxA enzyme (P. aeruginosa) (Pseudomonas aeruginosa, UniProt Q9X6P4); test: LpxA in vitro substrate acylation assay with RapidFire MS analysis (P. aeruginosa); type: biochemical; details: P. aeruginosa enzyme 0.5 nM, PaACP-C10, 30 min
# T2 sequence (Q9X6P4 1-258): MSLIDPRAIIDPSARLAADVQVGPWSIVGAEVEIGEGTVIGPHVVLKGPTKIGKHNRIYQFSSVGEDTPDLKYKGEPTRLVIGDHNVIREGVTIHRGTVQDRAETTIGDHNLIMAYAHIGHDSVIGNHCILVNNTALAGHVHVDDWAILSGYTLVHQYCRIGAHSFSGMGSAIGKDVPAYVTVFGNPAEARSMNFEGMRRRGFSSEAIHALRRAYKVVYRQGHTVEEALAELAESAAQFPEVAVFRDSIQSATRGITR
# [4] = tested on: Wild-type P. aeruginosa PAO1; test: Broth microdilution MIC, wild-type P. aeruginosa PAO1; type: cell-based; details: Pseudomonas aeruginosa; wild-type P. aeruginosa PAO1, 37° C., 18 h; read-out: PAO1 WT MIC
# [5] = tested on: P. aeruginosa PAO397; test: Broth microdilution MIC, P. aeruginosa PAO397; type: cell-based; details: Pseudomonas aeruginosa, PAO397, 18 h, read-out: PAO397 KO MIC
# [6] = tested on: P. aeruginosa PAO1 ΔmexABoprM; test: Broth microdilution MIC, P. aeruginosa PAO1 ΔmexABoprM; type: cell-based; details: Pseudomonas aeruginosa, PAO1, 18 h, read-out: PAO1 KO MIC
# [7] = tested on: E. coli JW0452-3 (BW25113 JacrA::kan); test: Broth microdilution MIC, E. coli JW0452-3; type: cell-based; details: Escherichia coli, BW25113, 18 h, read-out: E. coli KO MIC
# Experimental: Exemplary compounds from the above Examples were tested to determine their minimum inhibitory concentration (MIC) for exemplary strains of Escherichia and Pseudomonas bacteria using broth microdilution methods. Assay procedures and results are described below.
# Broth microdilution assays were conducted according to Clinical and Laboratory Standards Institute guidelines (CLSI, M07-A^11: Clinical and Laboratory Standards Institute. Methods for Dilution Antimicrobial Susceptibility Tests for Bacteria that Grow Aerobically; Approved Standard-11th Edition. Wayne, PA: CLSI, 2018). Briefly, bacterial suspensions were adjusted to a density equivalent to a 0.5 McFarland standard and diluted in sterile, cation-adjusted Mueller-Hinton broth (Beckton Dickinson) to yield a final inoculum between 2×10^5 and 8×10^5 colony-forming units (CFU)/mL. An inoculum volume of 98 μL was added to wells containing 2 μL of 2-fold serial dilutions of drug (prepared in DMSO). All inoculated microdilution trays were incubated in ambient air at 37° C. for 18 h. […] Performance of the assay was monitored by the use of laboratory quality-control strains (S. aureus ATCC 29213 and P. aeruginosa ATCC 27853) and levofloxacin, a compound with a defined MIC spectrum, in accordance with CLSI guidelines (CLSI, M100Ed29: Clinical and Laboratory Standards Institute. Performance Standards for Antimicrobial Susceptibility Testing, 29th Edition. Wayne, PA: CLSI, 2018).
# Multiple enterobacteriaceae strains were tested, including both wild-type strains and multi-drug resistance pump deficient mutants. Specific strains tested included the following: • Wild-type P. aeruginosa PAO1, • P. aeruginosa PAO1 ΔmexABoprM—Disabled multi-drug efflux system Δ(MexAB-OprM), • P. aeruginosa PAO397—PAO1Δ(mexAB-oprM) Δ(mexCD-oprJ) Δ(mexEF-oprN) Δ(mexJK) Δ(mexXY) ΔopmH, • P. aeruginosa LESB58—Clinical isolate; colistin-resistant, isolated in the United Kingdom in 1988 from a patient with cystic fibrosis • E. coli JW0452-3 (BW25113 JacrA::kan)—Disabled multi-drug efflux system (AcrAB-TolC). […]
# [8] = tested on: P. aeruginosa LESB58; test: Broth microdilution MIC, P. aeruginosa LESB58; type: cell-based; details: Pseudomonas aeruginosa; P. aeruginosa LESB58 clinical isolate, colistin-resistant, 37° C., 18 h
Compound,IC50 [1] [nM],IC50 [2] [nM],IC50 [3] [nM],MIC [4] [µg/mL],MIC [5] [µg/mL],MIC [6] [µg/mL],MIC [7] [µg/mL],MIC [8] [µg/mL]
N#Cc1ccc(CN(CC(=O)N2CCOCC2)C(=O)CSc2ccccc2Cl)cc1 [Compound No. 2],> 20000,> 20000,> 1000,> 64,16 to 64,–,–,–
CN1CC(NC(=O)CN(Cc2ccc(C#N)cc2)C(=O)CSc2ccccc2Cl)C1 [Compound No. 6],> 20000,–,> 1000,> 64,1 to 16,–,–,–
"N#Cc1ccc(CN(C(=O)CSc2ccccc2Cl)[C@@H](CO)c2nnc(N)o2)cn1 [Compound No. 8, 2-(2-Chlorophenyl)sulfanyl-N-[(6-cyano-3-pyridyl)methyl]-N-[(1S)-1-(5-amino-1,3,4-oxadiazol-2-yl)-2-hydroxy-ethyl]acetamide]",–,> 20000,< 20,> 64,< 1,1 to 16,–,–
Nc1nnc(CN(Cc2ccc(OC3CCOCC3)cc2)C(=O)CSc2ccccc2Cl)o1 [Compound No. 11],–,> 20000,100 to 1000,–,< 1,1 to 16,–,–
"N#Cc1ccc(CN(Cc2nnc(N)o2)C(=O)CSc2cc(-c3c[nH]cn3)ccc2Cl)c(F)c1 [Compound No. 62, N-[(5-Amino-1,3,4-oxadiazol-2-yl)methyl]-2-[2-chloro-5-(1H-imidazol-4-yl)phenyl]sulfanyl-N-[(4-cyano-2-fluoro-phenyl)methyl]acetamide]",–,5000 to 20000,100 to 1000,> 64,1 to 16,–,16 to 64,–
N#Cc1ccc(CN(CC(=O)NC2CNC2)C(=O)CSc2ccccc2Cl)cc1 [compound 5],> 20000,–,100 to 1000,> 64,16 to 64,–,16 to 64,–
N#Cc1ccc(CN(Cc2nnc(N)o2)C(=O)CCc2ccccc2Cl)cn1 [compound 16],–,> 20000,100 to 1000,> 64,1 to 16,16 to 64,–,–
CS(=O)(=O)Nc1ccc(CN(Cc2nnc(N)o2)C(=O)CSc2ccccc2Cl)cc1 [compound 46],–,> 20000,20 to 100,> 64,1 to 16,> 64,16 to 64,–
Nc1nnc(CN(Cc2ccc(S(N)(=O)=O)cc2)C(=O)CSc2cc(F)cc(F)c2Cl)o1 [compound 59],–,> 20000,< 20,> 64,< 1,1 to 16,–,16 to 64
NC(=O)c1ccc(CN(Cc2nnc(N)o2)C(=O)CSc2ccccc2Cl)cc1 [compound 76],–,> 20000,100 to 1000,> 64,1 to 16,16 to 64,–,–
